Assay results reported in publication PMC6211260 (Journal of Enzyme Inhibition and Medicinal Chemistry, 2018).
Read-outs that look alike come from different tables or passages of the source.

Assays:
CNS cancer cell lines = experiment: NCI five-dose testing, subpanel mean; type: cell-based; details: subpanel IV: CNS cancer
Method: (§1) Screening against the cancer cell lines was carried out at the National Cancer Institute (NCI, Bethesda, Maryland, USA) applying the standard protocol of the NCI[22].

[1] = test system: prostate cancer cell lines; experiment: NCI five-dose testing, subpanel mean; type: cell-based; details: subpanel VIII: prostate cancer
Method: as §1

colon cancer cell lines = experiment: NCI five-dose testing, subpanel mean; type: cell-based; details: subpanel III: colon cancer
Method: as §1

[2] = test system: non-small cell lung cancer cell lines; experiment: NCI five-dose testing, subpanel mean; type: cell-based; details: subpanel II: non-small cell lung cancer
Method: as §1

Leukaemia cell lines = experiment: NCI five-dose testing, subpanel mean; type: cell-based; details: subpanel I: Leukaemia
Method: as §1

melanoma cell lines = experiment: NCI five-dose testing, subpanel mean; type: cell-based; details: subpanel V: melanoma
Method: as §1

renal cancer cell lines = experiment: NCI five-dose testing, subpanel mean; type: cell-based; details: subpanel VII: renal cancer
Method: as §1

breast cancer cell lines = experiment: NCI five-dose testing, subpanel mean; type: cell-based; details: subpanel IX: breast cancer
Method: as §1

[3] = test system: ovarian cancer cell lines; experiment: NCI five-dose testing, subpanel mean; type: cell-based; details: subpanel VI: ovarian cancer
Method: as §1

[4] = test system: U251 CNS cancer cell line; experiment: NCI five-dose testing; type: cell-based; details: Homo sapiens
Method: as §1

[5] = test system: HT-29 colon cancer cell line; experiment: NCI five-dose testing; type: cell-based; details: Homo sapiens
Method: as §1

[6] = test system: PC-3 prostate cancer cell line; experiment: NCI five-dose testing; type: cell-based; details: Homo sapiens
Method: as §1

[7] = test system: HOP-92 non-small cell lung cancer cell line; experiment: NCI five-dose testing; type: cell-based; details: Homo sapiens; for IC50: HOP-92
Method: as §1

[8] = test system: MDA-MB-468 breast cancer cell line; experiment: NCI five-dose testing; type: cell-based; details: Homo sapiens
Method: as §1

[9] = test system: OVCAR-4 ovarian cancer cell line; experiment: NCI five-dose testing; type: cell-based; details: Homo sapiens
Method: as §1

[10] = test system: SK-MEL-5 melanoma cell line; experiment: NCI five-dose testing; type: cell-based; details: Homo sapiens
Method: as §1

[11] = test system: A498 renal cancer cell line; experiment: NCI five-dose testing; type: cell-based; details: Homo sapiens
Method: as §1

[12] = test system: K-562 leukaemia cell line; experiment: NCI five-dose testing; type: cell-based; details: Homo sapiens
Method: as §1

Plasma stability = type: in vitro ADME; details: 37 °C, 10 µM
Method: About 10 µM of compound 2l was mixed with human plasma and rat plasma and the mixture was shaked at 37 °C for 30 min and 120 min. After each time interval, acetonitrile was added and the mixture was centrifugated (14000 rpm, 4 °C). The supernatant was injected into the LC-MS to detect the remaining amount of compound 2l.

SMILES: O=S(=O)(NCCCNc1cc(-c2cn(-c3ccccc3)nc2-c2cccc(O)c2)ccn1)c1ccc(F)cc1 [Compound 2m, 4-Fluoro-N-(3-((4-(3-(3-hydroxyphenyl)-1-phenyl-1H-pyrazol-4-yl)pyridin-2-yl)amino)propyl)benzenesulfonamide]
- IC50 (CNS cancer cell lines): 3.28 µM
- IC50 [1]: 3.62 µM
- IC50 (colon cancer cell lines): 2.68 µM
- IC50 [2]: 3.91 µM
- IC50 (Leukaemia cell lines): 2.25 µM
- IC50 (melanoma cell lines): 2.89 µM
- IC50 (renal cancer cell lines): 3.81 µM
- IC50 (breast cancer cell lines): 2.69 µM
- IC50 [3]: 3.79 µM
- CC50 ([4]; U-251, read-out: LD50 (lethal dose 50)): 69.5 µM
- IC50 ([4]; U-251, U251, read-out: IC50): 2.97 µM
- IC (TGI) ([4]; U-251, U251, read-out: TGI (total growth inhibition concentration)): 10.3 µM
- CC50 ([5]; HT-29, read-out: LD50 (lethal dose 50)): 47.8 µM
- IC50 ([5]; HT-29, read-out: IC50): 2.26 µM
- IC (TGI) ([5]; HT-29, read-out: TGI (total growth inhibition concentration)): 6.4 µM
- LC50 (lethal concentration 50) ([6]; PC-3, read-out: LD50 (lethal dose 50)): 80.7 µM
- IC50 ([6]; PC-3, read-out: IC50): 3.11 µM
- IC (TGI) ([6]; PC-3, read-out: TGI (total growth inhibition concentration)): 8.5 µM
- IC50 [7]: 2.66 µM
- IC (TGI) ([7]; HOP-92, HOP-92, read-out: TGI (total growth inhibition concentration)): 7.6 µM
- LD50 (lethal dose 50) ([7]; HOP-92, read-out: LD50 (lethal dose 50)): 84.2 µM
- IC50 ([8]; MDA-MB-468): 2.55 µM
- CC50 ([8]; MDA-MB-468, read-out: LD50 (lethal dose 50)): > 100 µM
- IC (TGI) ([8]; MDA-MB-468, read-out: TGI (total growth inhibition concentration)): 6.7 µM
- IC50 ([9]; OVCAR-4): 3.82 µM
- LC50 (lethal concentration 50) ([9]; OVCAR-4, read-out: LD50 (lethal dose 50)): > 100 µM
- IC (TGI) ([9]; OVCAR-4, read-out: TGI (total growth inhibition concentration)): 4.8 µM
- IC50 ([10]; SK-MEL-5): 3.06 µM
- LC50 (lethal concentration 50) ([10]; SK-MEL-5, read-out: LD50 (lethal dose 50)): 33 µM
- IC (TGI) ([10]; SK-MEL-5, read-out: TGI (total growth inhibition concentration)): 10.1 µM
- IC50 ([11]; A498): 3.52 µM
- LC50 (lethal concentration 50%) ([11]; A498, read-out: LD50 (lethal dose 50)): 52.3 µM
- IC (TGI) ([11]; A498, read-out: TGI (total growth inhibition concentration)): 9.8 µM
- CC50 ([12]; K562, read-out: LD50 (lethal dose 50)): > 100 µM
- IC50 ([12]; K562, K-562): 2.4 µM
- IC (TGI) ([12]; K562, K-562, read-out: TGI (total growth inhibition concentration)): 6.3 µM

SMILES: CCN(CC)CCOC(=O)c1ccc(N)cc1 [Procaine]
- Plasma stability, remaining unchanged (Plasma stability; Human plasma, 30 min): 1.2%
- Plasma stability, remaining unchanged (Plasma stability; Human plasma, 30 min, listed as procaine): 1.2%
- Plasma stability, remaining unchanged (Plasma stability; Human plasma, 120 min): 0.2%
- Plasma stability, remaining unchanged (Plasma stability; Human plasma, 120 min, listed as procaine): 0.2%
- Plasma stability, remaining unchanged (Plasma stability; Rat plasma, 30 min): 89.9%
- Plasma stability, remaining unchanged (Plasma stability; Rat plasma, 120 min): 42.7%

SMILES: COc1ccc(S(=O)(=O)NCCCNc2cc(-c3cn(-c4ccccc4)nc3-c3cccc(OC)c3)ccn2)cc1 [Compound 2e, 4-Methoxy-N-(3-((4-(3-(3-methoxyphenyl)-1-phenyl-1H-pyrazol-4-yl)pyridin-2-yl)amino)propyl)benzenesulfonamide]
- melting point: 124 to 126 °C

SMILES: O=S(=O)(NCCNc1cc(-c2cn(-c3ccccc3)nc2-c2cccc(O)c2)ccn1)c1ccccc1 [Compound 1j, N-(2-((4-(3-(3-Hydroxyphenyl)-1-phenyl-1H-pyrazol-4-yl)pyridin-2-yl)amino)ethyl) benzenesulfonamide]
- melting point: 100 to 102 °C

SMILES: COc1cccc(-c2nn(-c3ccccc3)cc2-c2ccnc(NCCCNS(=O)(=O)c3cccc4ccccc34)c2)c1 [Compound 2i, N-(3-((4-(3-(3-Methoxyphenyl)-1-phenyl-1H-pyrazol-4-yl)pyridin-2-yl)amino)propyl) naphthalene-1-sulfonamide]
- melting point: 134 to 136 °C

SMILES: O=S(=O)(NCCCNc1cc(-c2cn(-c3ccccc3)nc2-c2cccc(O)c2)ccn1)c1ccccc1 [Compound 2j, N-(3-((4-(3-(3-Hydroxyphenyl)-1-phenyl-1H-pyrazol-4-yl)pyridin-2-yl)amino)propyl) benzenesulfonamide]
- melting point: 154 to 156 °C

SMILES: COc1cccc(-c2nn(-c3ccccc3)cc2-c2ccnc(NCCNS(=O)(=O)c3ccccc3)c2)c1 [Compound 1a, N-(2-((4-(3-(3-methoxyphenyl)-1-phenyl-1H-pyrazol-4-yl)pyridin-2-yl)amino)ethyl) benzenesulfonamide]
- melting point: 104 to 106 °C

SMILES: COc1ccc(S(=O)(=O)NCCNc2cc(-c3cn(-c4ccccc4)nc3-c3cccc(OC)c3)ccn2)cc1 [Compound 1e, 4-Methoxy-N-(2-((4-(3-(3-methoxyphenyl)-1-phenyl-1H-pyrazol-4-yl)pyridin-2-yl)amino)ethyl)benzenesulfonamide]
- melting point: 144 to 146 °C

SMILES: O=S(=O)(NCCNc1cc(-c2cn(-c3ccccc3)nc2-c2cccc(O)c2)ccn1)c1cccc2ccccc12 [Compound 1q, N-(2-((4-(3-(3-Hydroxyphenyl)-1-phenyl-1H-pyrazol-4-yl)pyridin-2-yl)amino)ethyl)naphthalene-1-sulfonamide]
- melting point: 146 to 148 °C

SMILES: Cc1ccc(S(=O)(=O)NCCCNc2cc(-c3cn(-c4ccccc4)nc3-c3cccc(O)c3)ccn2)cc1 [Compound 2n, N-(3-((4-(3-(3-Hydroxyphenyl)-1-phenyl-1H-pyrazol-4-yl)pyridin-2-yl)amino)propyl)-4-methylbenzenesulfonamide]
- melting point: 158 to 160 °C

SMILES: COc1cccc(-c2nn(-c3ccccc3)cc2-c2ccnc(NCCNS(=O)(=O)c3cccc4ccccc34)c2)c1 [Compound 1i, N-(2-((4-(3-(3-Methoxyphenyl)-1-phenyl-1H-pyrazol-4-yl)pyridin-2-yl)amino)ethyl)naphthalene-1-sulfonamide]
- melting point: 178 to 180 °C

SMILES: COc1cccc(-c2nn(-c3ccccc3)cc2-c2ccnc(NCCNS(=O)(=O)c3ccc(C)cc3)c2)c1 [Compound 1f, N-(2-((4-(3-(3-Methoxyphenyl)-1-phenyl-1H-pyrazol-4-yl)pyridin-2-yl)amino)ethyl)-4-methylbenzenesulfonamide]
- melting point: 150 to 152 °C

SMILES: COc1cccc(-c2nn(-c3ccccc3)cc2-c2ccnc(NCCNS(=O)(=O)c3cccc(F)c3)c2)c1 [Compound 1h, 3-Fluoro-N-(2-((4-(3-(3-methoxyphenyl)-1-phenyl-1H-pyrazol-4-yl)pyridin-2-yl)amino)ethyl)benzenesulfonamide]
- melting point: 118 to 120 °C

SMILES: COc1cccc(-c2nn(-c3ccccc3)cc2-c2ccnc(NCCCNS(=O)(=O)c3ccc(C)cc3)c2)c1 [Compound 2f, N-(3-((4-(3-(3-Methoxyphenyl)-1-phenyl-1H-pyrazol-4-yl)pyridin-2-yl)amino)propyl)-4-methylbenzenesulfonamide]
- melting point: 94 to 96 °C

SMILES: Cc1ccc(S(=O)(=O)NCCNc2cc(-c3cn(-c4ccccc4)nc3-c3cccc(O)c3)ccn2)cc1 [Compound 1n, N-(2-((4-(3-(3-Hydroxyphenyl)-1-phenyl-1H-pyrazol-4-yl)pyridin-2-yl)amino)ethyl)-4-methylbenzenesulfonamide]
- melting point: 114 to 116 °C

SMILES: O=S(=O)(NCCNc1cc(-c2cn(-c3ccccc3)nc2-c2cccc(O)c2)ccn1)c1cccc(F)c1 [Compound 1p, 3-Fluoro-N-(2-((4-(3-(3-hydroxyphenyl)-1-phenyl-1H-pyrazol-4-yl)pyridin-2-yl)amino)ethyl)benzenesulfonamide]
- melting point: 146 to 148 °C

SMILES: COc1cccc(-c2nn(-c3ccccc3)cc2-c2ccnc(NCCCNS(=O)(=O)c3ccccc3)c2)c1 [Compound 2a, N-(3-((4-(3-(3-Methoxyphenyl)-1-phenyl-1H-pyrazol-4-yl)pyridin-2-yl)amino)propyl) benzenesulfonamide]
- melting point: 119 to 120 °C

SMILES: CNC(=O)c1cc(Oc2ccc(NC(=O)Nc3ccc(Cl)c(C(F)(F)F)c3)cc2)ccn1 [Sorafenib, reference compound]
- IC50 (CNS cancer cell lines): 2.51 µM
- IC50 [1]: 3.16 µM
- IC50 (colon cancer cell lines): 2.35 µM
- IC50 [2]: 2.11 µM
- IC50 (Leukaemia cell lines): 2.23 µM
- IC50 (melanoma cell lines): 8.57 µM
- IC50 (renal cancer cell lines): 2.89 µM
- IC50 (breast cancer cell lines): 2.15 µM
- IC50 [3]: 2.77 µM
- IC50 ([4]; U-251): 2.51 µM
- IC50 ([5]; HT-29): 2.51 µM
- IC50 ([6]; PC-3): 2.51 µM
- IC50 [7]: 1.85 µM
- IC50 ([8]; MDA-MB-468): 1.99 µM
- IC50 ([10]; SK-MEL-5): 1.25 µM

SMILES: COc1ccc([C@@H]2Sc3ccccc3N(CCN(C)C)C(=O)[C@@H]2OC(C)=O)cc1 [Diltiazem]
- Plasma stability, remaining unchanged (Plasma stability; Human plasma, 30 min): 91.5%
- Plasma stability, remaining unchanged (Plasma stability; Human plasma, 30 min, listed as diltiazem): 91.5%
- Plasma stability, remaining unchanged (Plasma stability; Human plasma, 120 min): 89.3%
- Plasma stability, remaining unchanged (Plasma stability; Human plasma, 120 min, listed as diltiazem): 89.3%
- Plasma stability, remaining unchanged (Plasma stability; Rat plasma, 30 min): 86.3%
- Plasma stability, remaining unchanged (Plasma stability; Rat plasma, 120 min): 45.4%
